Data set [1] deals with HL-60. Put plainly: Cytotoxicity against human HL60 cells. The format is functional. The note with it: read-out: ED50 (the source's name).
Data set [2] concerns Rattus norvegicus. Nature of the data set: Antidepressant activity in Long-Evans rat assessed as effect on number of boli excreted at 20 to 90 mg/kg, sc administered 21 days measured for 6 mins by Porsalt forced-swim test relative to vehicle-treated control. The format is functional, organism-based.
Data set [3] concerns Rattus norvegicus. Put plainly: Antidepressant activity in Long-Evans rat assessed as effect on inverts at 20 to 90 mg/kg, sc administered 21 days measured for 6 mins by Porsalt forced-swim test relative to vehicle-treated control. In kind it is functional, organism-based.
The test system of data set [4] is Rattus norvegicus. Put plainly: Antidepressant activity in Long-Evans rat assessed as effect on dives at 20 to 90 mg/kg, sc administered 21 days measured for 6 mins by Porsalt forced-swim test relative to vehicle-treated control. The format is functional, organism-based.
Data set [5] deals with Rattus norvegicus. Put plainly: Antidepressant activity in Long-Evans rat assessed as effect on swim speed at 20 to 90 mg/kg, sc administered 21 days measured for 6 mins by Porsalt forced-swim test relative to vehicle-treated control. In kind it is functional, organism-based.
For data set [6], the system named is Rattus norvegicus. Nature of the data set: Antidepressant activity in Long-Evans rat assessed as mobile index at 90 mg/kg, sc administered 21 days measured for 6 mins by Porsalt forced-swim test (reference value: 286 +/- 8.7 secs). The format is functional. To be noted: route subcutaneous.
The test system of data set [7] is Rattus norvegicus. Put plainly: Antidepressant activity in Long-Evans rat assessed as mobile index at 20 mg/kg, sc administered 21 days measured for 6 mins by Porsalt forced-swim test (reference value: 286 +/- 8.7 secs). In kind it is functional. The note with it: route subcutaneous.
Data set [8] has as its system Rattus norvegicus. Put plainly: Toxicity in Long-Evans rat assessed as hypothalamic aromatase level at 90 mg/kg, sc measured per mg of protein measured for 21 days (reference value: 60 +/- 6.1 pmol/hr). The format is organism-based. Also on record: dose 90 mg/kg, route subcutaneous. The note with it: in vivo, 504 h.
In data set [9] the test system is Rattus norvegicus. Nature of the data set: Toxicity in Long-Evans rat assessed as hypothalamic aromatase level at 20 mg/kg, sc measured per mg of protein measured for 21 days (reference value: 60 +/- 6.1 pmol/hr). The format is organism-based. More on the design: dose 20 mg/kg, route subcutaneous. The note with it: in vivo, 504 h.
Data set [10] relates to Rattus norvegicus. Nature of the data set: Toxicity in Long-Evans rat assessed as change in estrous cycle pattern at 20 to 90 mg/kg, sc measured for 8 days by vaginal histological analysis. In kind it is organism-based. More on the design: dose 20-90 mg/kg, route subcutaneous. To be noted: in vivo, 192 h.
For data set [11], the system named is Rattus norvegicus. Put plainly: Toxicity in Long-Evans rat assessed as white adipose tissue weight/body weight ratio at 20 to 90 mg/kg, sc measured after 21 days. In kind it is organism-based. Also on record: dose 20-90 mg/kg, route subcutaneous. The note with it: in vivo, 504 h.
Data set [12] deals with Rattus norvegicus. Put plainly: Toxicity in Long-Evans rat assessed as white adipose tissue weight at 20 to 90 mg/kg, sc measured after 21 days. The format is organism-based. Also on record: dose 20-90 mg/kg, route subcutaneous. To be noted: in vivo, 504 h.
Data set [13] has as its system Rattus norvegicus. Put plainly: Toxicity in Long-Evans rat assessed as water intake at 90 mg/kg, sc measured after 20 to 21 days (reference value: 50.7 +/- 3.5 mL). The format is organism-based. Also on record: dose 90 mg/kg, route subcutaneous. The note with it: in vivo.
For data set [14], the system named is Rattus norvegicus. Put plainly: Toxicity in Long-Evans rat assessed as water intake at 20 mg/kg, sc measured after 20 to 21 days (reference value: 50.7 +/- 3.5 mL). Also on record: dose 20 mg/kg, route subcutaneous. In kind it is organism-based. To be noted: in vivo.
Data set [15] deals with Rattus norvegicus. Put plainly: Toxicity in Long-Evans rat assessed as water intake at 90 mg/kg, sc measured after 8 to 9 days (reference value: 53.3 +/- 2.7 mL). In kind it is organism-based. More on the design: dose 90 mg/kg, route subcutaneous. To be noted: in vivo.
In data set [16] the test system is Rattus norvegicus. Nature of the data set: Toxicity in Long-Evans rat assessed as water intake at 20 mg/kg, sc measured after 8 to 9 days (reference value: 53.3 +/- 2.7 mL). More on the design: dose 20 mg/kg, route subcutaneous. In kind it is organism-based. To be noted: in vivo.
Data set [17] has as its system Rattus norvegicus. Put plainly: Toxicity in Long-Evans rat assessed as food intake at 90 mg/kg, sc measured after 20 to 21 days (reference value: 33.8 +/- 1.8 g). To be noted: in vivo. Also on record: dose 90 mg/kg, route subcutaneous. The format is organism-based.
Data set [18] has as its system Rattus norvegicus. Nature of the data set: Toxicity in Long-Evans rat assessed as food intake at 20 mg/kg, sc measured after 20 to 21 days (reference value: 33.8 +/- 1.8 g). In kind it is organism-based. More on the design: dose 20 mg/kg, route subcutaneous. To be noted: in vivo.
In data set [19] the test system is Rattus norvegicus. Nature of the data set: Toxicity in Long-Evans rat assessed as food intake at 90 mg/kg, sc measured after 8 to 9 days (reference value: 33.1 +/- 1.5 g). The format is organism-based. Also on record: dose 90 mg/kg, route subcutaneous. To be noted: in vivo.
Data set [20] relates to Rattus norvegicus. Nature of the data set: Toxicity in Long-Evans rat assessed as food intake at 20 mg/kg, sc measured after 8 to 9 days (reference value: 33.1 +/- 1.5 g). In kind it is organism-based. Also on record: dose 20 mg/kg, route subcutaneous. To be noted: in vivo.
The nature of data set [21]: Half life in human. In kind it is ADME, organism-based. To be noted: in vivo.

The text below walks through data of ChEMBL document CHEMBL2380277, “A new synthesis of 4'-resveratrol esters and evaluation of the potential for anti-depressant activity” (Bioorg Med Chem Lett, 2013).

Active and inactive are the calls of the source. The rule behind the calls is not given here.

Take `CC(=O)Oc1ccc(/C=C/c2cc(O)cc(O)c2)cc1`: the EC50 in data set [1] worked out at 17 µM. Further, the outcome in data set [2], in [3], in data set [4] and in [5] was Active. Also, the Time in [6] stood at 319 s; in data set [7] it was 312 s. Moreover, the Activity was 73 pmol/h in [8]; 71 pmol/h in data set [9]; “Non-toxic” in data set [10]; 6.6 g in data set [12]; 55.8 mL in data set [13]; 50.9 mL in data set [14]. Moreover, the Activity stood at 56.7 mL in [15]; 52.1 mL in data set [16]; 36.9 g in [17]; 35.2 g in data set [18]; 35.2 g in data set [19]; 34.3 g in data set [20]. Further, in data set [11], the Ratio amounted to 2.4.

In the case of `Oc1ccc(/C=C/c2cc(O)cc(O)c2)cc1` [RESVERATROL], in data set [21], the half-life (as a rule, how long it takes for the measured level to halve) was found to be 30 min. Also, in [1], the EC50 came out at 22 µM.
